Test results taken from patent publication US8853193B2, “Thienopyrimidines containing a substituted alkyl group for pharmaceutical compositions” (Boehringer Ingelheim International GmbH, priority 2010, dated 2014).

What was measured:
[1] = test system: Mnk2 (Mnk2a or Mnk2b) or Mnk1; details: cells transfected with Mnk2 (Mnk2a or Mnk2b) or Mnk1; cited from earlier work
human Mnk2a = human Mnk2a (Homo sapiens (Human), UniProt Q9HBH9); experiment: Mnk2a in vitro kinase assay (indirect competitive fluorescence polarization); type: biochemical; details: pre-activated GST-Mnk2a 2.5 nM, 20 μM ATP, 30 μM substrate peptide; read-out: MNK2 IC50
Sequence of human Mnk2a (Q9HBH9 whole entry): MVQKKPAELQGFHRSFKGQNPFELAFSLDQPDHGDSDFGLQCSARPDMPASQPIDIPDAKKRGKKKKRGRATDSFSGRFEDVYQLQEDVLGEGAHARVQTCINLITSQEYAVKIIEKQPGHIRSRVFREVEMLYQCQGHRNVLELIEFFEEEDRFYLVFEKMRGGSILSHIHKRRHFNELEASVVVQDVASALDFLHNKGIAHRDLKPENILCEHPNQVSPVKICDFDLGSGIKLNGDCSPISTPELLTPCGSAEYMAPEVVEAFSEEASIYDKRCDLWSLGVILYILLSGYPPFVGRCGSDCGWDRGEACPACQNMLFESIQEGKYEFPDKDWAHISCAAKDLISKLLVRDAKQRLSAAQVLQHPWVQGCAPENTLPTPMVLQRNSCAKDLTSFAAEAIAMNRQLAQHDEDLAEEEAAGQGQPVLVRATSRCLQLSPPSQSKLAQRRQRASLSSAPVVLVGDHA
In short: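 GST-tagged human Mnk2a expressed in E. coli and glutathione-purified, then activated at 2.5 μM with 150 nM pre-activated NHis-ERK2 and 50 μM ATP in HEPES/KOH pH 7.4, MgCl2, DTT, Brij 78 for 45 min at 30 °C. Phospho-peptide product read by indirect competitive fluorescence polarization against fluorophore-labelled phospho-peptide bound to phospho-specific antibody.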

Question: Which “reduction of phosphorylated eIF4E” value [1] does the source give for `Nc1ncnc2n[nH]c(Nc3ccc(F)cc3)c12` [CGP57380] here?
Answer: The value was “strong reduction of phosphorylated eIF4E”.

Question: With `COC(=O)c1sc2ncnc(Nc3ccc(F)cc3OC(C)CNS(=O)(=O)C(C)C)c2c1C` (stereo not drawn) [Compound 3-2, Methyl 4-(4-fluoro-2-(1-(1-methylethylsulfon-amino)propan-2yloxy)-phenylamino)-5-methyl-thieno[2,3-d]pyrimidine-6-carboxylate] as the molecule, how does the IC50 (human Mnk2a) read?
Answer: Its IC50 is 204 nM.

Question: For `Cc1c(C(=O)NCC#CCN(C)C)sc2ncnc(Nc3cccnc3OC(C)C)c12` [Compound 36-16], which IC50 (human Mnk2a) is on record?
Answer: Its IC50 is 22 nM.
